Assay results reported in patent US10023590B2, “Substituted pyridine compounds having herbicidal activity” (BASF SE, priority 2014, dated 2018).

How the values were obtained:
Format in all cases: in vivo
Amaranthus retroflexus = assay: Greenhouse post-emergence herbicidal activity, AMARE; settings: AMARE; for pest or weed control at 250 g/ha: 0.25 kg/ha
Text: (§1) The culture containers used were plastic flowerpots containing loamy sand with approximately 3.0% of humus as the substrate. The seeds of the test plants were sown separately for each species.
(§2) For the post-emergence treatment, the test plants were first grown to a height of 3 to 15 cm, depending on the plant habit, and only then treated with the active ingredients which had been suspended or emulsified in water. For this purpose, the test plants were either sown directly and grown in the same containers, or they were first grown separately as seedlings and transplanted into the test containers a few days prior to treatment.
(§3) Depending on the species, the plants were kept at 10-25° C. or 20-35° C., respectively.
(§4) The test period extended over 2 to 4 weeks. During this time, the plants were tended, and their response to the individual treatments was evaluated.
(§5) Evaluation was carried out using a scale from 0 to 100. 100 means no emergence of the plants, or complete destruction of at least the aerial moieties, and 0 means no damage, or normal course of growth. A good herbicidal activity is given at values of at least 70 and a very good herbicidal activity is given at values of at least 85.

Chenopodium album = assay: Greenhouse post-emergence herbicidal activity, CHEAL; settings: for pest or weed control at 250 g/ha: 0.25 kg/ha
Text: as §1, §2, §3, §4, §5

Echinocloa crus-galli = assay: Greenhouse post-emergence herbicidal activity, ECHCG; settings: Echinochloa crus-galli, ECHCG; for pest or weed control at 250 g/ha: 0.25 kg/ha
Text: as §1, §2, §3, §4, §5

Oryza sativa = assay: Greenhouse post-emergence herbicidal activity on crop ORYSA (rice)
Text: as §1, §2, §3, §4, §5

Zea mays = assay: Greenhouse post-emergence herbicidal activity on crop ZEAMX (corn, maize); set-up: key: 0 = no damage/normal growth, 100 = no emergence or complete destruction
Text: as §1, §2, §3, §4, §5

[1] = ORYSA (rice, crop), 0.125 kg/ha, scale 0 to 100
[2] = ZEAMX (corn, crop), 0.125 kg/ha, scale 0 to 100
[3] = ORYSA (rice, crop), 0.031 kg/ha, scale 0 to 100
[4] = ORYSA (rice, crop), 0.063 kg/ha, scale 0 to 100
[5] = ZEAMX (corn, crop), 0.031 kg/ha, scale 0 to 100
[6] = ZEAMX (corn, crop), 0.063 kg/ha, scale 0 to 100
[7] = ZEAMX (corn, crop), 0.25 kg/ha, scale 0 to 100
[8] = crop ORYSA (rice), application rate 0.031 kg/ha
[9] = crop ORYSA (rice), application rate 0.063 kg/ha
[10] = crop ORYSA (rice), application rate 0.125 kg/ha
[11] = crop ZEAMX (corn, maize), application rate 0.031 kg/ha
[12] = crop ZEAMX (corn, maize), application rate 0.063 kg/ha
[13] = crop ZEAMX (corn, maize), application rate 0.125 kg/ha

SMILES | pest or weed control at 125 g/ha (Amaranthus retroflexus; 0.125 kg/ha, scale 0 to 100) | pest or weed control at 250 g/ha (Amaranthus retroflexus; scale 0 to 100) | pest or weed control at 125 g/ha (Chenopodium album; 0.125 kg/ha, scale 0 to 100) | pest or weed control at 250 g/ha (Chenopodium album; scale 0 to 100) | pest or weed control at 125 g/ha (Echinocloa crus-galli; 0.125 kg/ha, scale 0 to 100) | pest or weed control at 250 g/ha (Echinocloa crus-galli; scale 0 to 100) | Herbicidal activity (Oryza sativa; [1]) | Herbicidal activity (Zea mays; [2]) | pest or weed control at 31 g/ha (Amaranthus retroflexus; 0.031 kg/ha, scale 0 to 100) | pest or weed control at 63 g/ha (Amaranthus retroflexus; 0.063 kg/ha, scale 0 to 100) | pest or weed control at 31 g/ha (Chenopodium album; 0.031 kg/ha, scale 0 to 100) | pest or weed control at 63 g/ha (Chenopodium album; 0.063 kg/ha, scale 0 to 100) | pest or weed control at 31 g/ha (Echinocloa crus-galli; 0.031 kg/ha, scale 0 to 100) | pest or weed control at 63 g/ha (Echinocloa crus-galli; 0.063 kg/ha, scale 0 to 100) | Herbicidal activity (Oryza sativa; [3]) | Herbicidal activity (Zea mays; [5]) | Herbicidal activity (Zea mays; [6]) | pest or weed control at 31 g/ha (Chenopodium album; application rate 0.031 kg/ha) | pest or weed control at 63 g/ha (Chenopodium album; application rate 0.063 kg/ha) | pest or weed control at 125 g/ha (Chenopodium album; application rate 0.125 kg/ha) | other results
CS(=O)(=O)Nc1c(Cl)ccc(C2=C(O)c3ncccc3CS2(=O)=O)c1Cl [I-1, N-[2,6-dichloro-3-(8-hydroxy-6,6-dioxo-5H-thiopyrano[4,3-b]pyridin-7-yl)phenyl]methanesulfonamide] | 75% | 80% | 80% | 95% | 70% | 80% | 0 | 0 |  |  |  |  |  |  |  |  |  |  |  |  | Herbicidal activity (Oryza sativa; ORYSA (rice, crop), 0.25 kg/ha, scale 0 to 100): 0
CN(c1ccc(Cl)c(C2=C(O)c3ncccc3CS2(=O)=O)c1Cl)S(C)(=O)=O [I-4, N-[2,4-dichloro-3-(8-hydroxy-6,6-dioxo-5H-thiopyrano[4,3-b]pyridin-7-yl)phenyl]-N-methyl-methanesulfonamide] | 98% | 98% | 100% | 100% | 98% | 100% | 50 | 55 | 90% | 90% | 85% | 95% | 98% | 90% | 25 | 0 | 20 |  |  |  | Herbicidal activity (Oryza sativa; [4]): 35
CN(c1cccc(C2=C(O)c3ncccc3CS2(=O)=O)c1Cl)S(C)(=O)=O [I-15, N-[2-chloro-3-(8-hydroxy-6,6-dioxo-5H-thiopyrano[4,3-b]pyridin-7-yl)phenyl]-N-methyl-methanesulfonamide] | 90% |  | 98% |  | 98% |  | 20 | 35 | 75% | 85% | 90% | 98% | 85% | 90% | 0 |  |  |  |  |  | Herbicidal activity (Oryza sativa; [4]): 0
CCS(=O)(=O)N(C)c1c(Cl)ccc(C2=C(O)c3ncccc3CS2(=O)=O)c1Cl [I-18, N-[2,6-dichloro-3-(8-hydroxy-6,6-dioxo-5H-thiopyrano[4,3-b]pyridin-7-yl)phenyl]-N-methyl-ethanesulfonamide] | 100% | 100% | 100% | 100% | 100% | 100% |  | 25 | 100% | 100% | 100% | 100% | 98% | 100% | 30 | 0 | 25 |  |  |  | Herbicidal activity (Zea mays; [7]): 35
CN(c1c(Cl)ccc(C2=C(O)c3ncccc3CS2(=O)=O)c1Cl)S(=O)(=O)CC1CC1 [I-20, 1-cyclopropyl-N-[2,6-dichloro-3-(8-hydroxy-6,6-dioxo-5H-thiopyrano[4,3-b]pyridin-7-yl)phenyl]-N-methyl-methanesulfonamide] | 100% |  | 100% |  | 100% |  |  | 0 | 90% | 90% | 100% | 100% | 100% | 100% |  | 0 | 0 |  |  |  | 
CS(=O)(=O)N(c1c(Cl)ccc(C2=C(O)c3ncccc3CS2(=O)=O)c1Cl)C1CC1 [I-24, N-cyclopropyl-N-[2,6-dichloro-3-(8-hydroxy-6,6-dioxo-5H-thiopyrano[4,3-b]pyridin-7-yl)phenyl]methanesulfonamide] | 85% | 90% | 90% | 98% | 90% | 95% | 20 | 15 | 70% | 75% | 80% | 85% | 80% | 85% | 0 | 0 | 0 |  |  |  | Herbicidal activity (Oryza sativa; [4]): 15; Herbicidal activity (Zea mays; [7]): 15
CN(c1cccc(C2=C(O)c3ncccc3CS2(=O)=O)c1S(C)(=O)=O)S(C)(=O)=O [I-33, N-[3-(8-hydroxy-6,6-dioxo-5H-thiopyrano[4,3-b]pyridin-7-yl)-2-methylsulfonyl-phenyl]-N-methyl-methanesulfonamide] |  |  |  |  |  |  |  |  |  |  |  |  |  |  |  |  |  | 85% | 98% | 90% | pest or weed control at 63 g/ha (Amaranthus retroflexus; application rate 0.063 kg/ha): 85%; pest or weed control at 125 g/ha (Amaranthus retroflexus; application rate 0.125 kg/ha): 90%; Herbicidal activity (Oryza sativa; [8]): 0; Herbicidal activity (Oryza sativa; [9]): 20; Herbicidal activity (Oryza sativa; [10]): 10; Herbicidal activity (Zea mays; [11]): 0; Herbicidal activity (Zea mays; [12]): 0; Herbicidal activity (Zea mays; [13]): 0
CN(c1cccc(C2=C(O)c3ncccc3C(C)(C)S2(=O)=O)c1S(C)(=O)=O)S(C)(=O)=O [I-34, N-[3-(8-hydroxy-5,5-dimethyl-6,6-dioxo-thiopyrano[4,3-b]pyridin-7-yl)-2-methylsulfonyl-phenyl]-N-methyl-methanesulfonamide] |  |  |  |  |  |  |  |  |  |  |  |  |  |  |  |  |  | 95% | 98% | 100% | pest or weed control at 31 g/ha (Amaranthus retroflexus; application rate 0.031 kg/ha): 90%; pest or weed control at 63 g/ha (Amaranthus retroflexus; application rate 0.063 kg/ha): 95%; pest or weed control at 125 g/ha (Amaranthus retroflexus; application rate 0.125 kg/ha): 98%; pest or weed control at 125 g/ha (Echinocloa crus-galli; application rate 0.125 kg/ha): 70%; Herbicidal activity (Oryza sativa; [8]): 0; Herbicidal activity (Oryza sativa; [9]): 0; Herbicidal activity (Oryza sativa; [10]): 0; Herbicidal activity (Zea mays; [11]): 0; Herbicidal activity (Zea mays; [12]): 0; Herbicidal activity (Zea mays; [13]): 15
CN(c1cccc(C2=C(O)c3ncccc3CS2(=O)=O)c1C(F)(F)F)S(C)(=O)=O [I-35, N-[3-(8-hydroxy-6,6-dioxo-5H-thiopyrano[4,3-b]pyridin-7-yl)-2-(trifluoromethyl)phenyl]-N-methyl-methanesulfonamide] |  |  |  |  |  |  |  |  |  |  |  |  |  |  |  |  |  | 95% | 100% | 100% | pest or weed control at 63 g/ha (Amaranthus retroflexus; application rate 0.063 kg/ha): 75%; pest or weed control at 125 g/ha (Amaranthus retroflexus; application rate 0.125 kg/ha): 100%; pest or weed control at 31 g/ha (Echinocloa crus-galli; application rate 0.031 kg/ha): 80%; pest or weed control at 63 g/ha (Echinocloa crus-galli; application rate 0.063 kg/ha): 90%; pest or weed control at 125 g/ha (Echinocloa crus-galli; application rate 0.125 kg/ha): 90%; Herbicidal activity (Oryza sativa; [8]): 0; Herbicidal activity (Oryza sativa; [9]): 15; Herbicidal activity (Oryza sativa; [10]): 25; Herbicidal activity (Zea mays; [11]): 0; Herbicidal activity (Zea mays; [12]): 0; Herbicidal activity (Zea mays; [13]): 0
CN(c1c(Cl)ccc(C2=C(O)c3ncc(F)cc3CS2(=O)=O)c1Cl)S(C)(=O)=O [I-37, N-[2,6-dichloro-3-(3-fluoro-8-hydroxy-6,6-dioxo-5H-thiopyrano[4,3-b]pyridin-7-yl)phenyl]-N-methyl-methanesulfonamide] |  |  |  |  |  |  |  |  |  |  |  |  |  |  |  |  |  | 90% | 90% | 90% | pest or weed control at 31 g/ha (Echinocloa crus-galli; application rate 0.031 kg/ha): 90%; pest or weed control at 63 g/ha (Echinocloa crus-galli; application rate 0.063 kg/ha): 90%; pest or weed control at 125 g/ha (Echinocloa crus-galli; application rate 0.125 kg/ha): 95%; Herbicidal activity (Oryza sativa; [8]): 0; Herbicidal activity (Oryza sativa; [9]): 0; Herbicidal activity (Oryza sativa; [10]): 0; Herbicidal activity (Zea mays; [11]): 0; Herbicidal activity (Zea mays; [12]): 0
